Values joined by “and” are separate entries in the source; they are usually repeats but may differ in a detail not shown here. Equal entries are not always repeated. Toxic doses and inconclusive results are not listed. Rule for the calls: active = survival T/C of 150% or more; inactive = T/C below 125% in these data. Bridge positions count the residues as written; N and C are the ends. Peptide text beside a SMILES is read from it. I, II: the chains in the order shown.
System: P388 leukemia ip, CD2F1 mice, survival T/C
Test: NCI In Vivo Anticancer Drug Screen. Data for tumor model P388 Leukemia (intraperitoneal) in CD2F1 (CDF1) mice
Conditions: endpoint: median survival time, higher = longer survival
Summary of the method: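 Mice carrying the transplanted tumor received test compound or vehicle. Survival was recorded in each group, and the value is the treated-group measurement divided by that of the vehicle-treated control group.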

[1] = dose: 50.0 mg/kg/injection, schedule: Q01DX009 (ip), vehicle: saline
[2] = dose: 100.0 mg/kg/injection, schedule: Q01DX009 (ip), vehicle: saline
[3] = dose: 50.0 mg/kg/injection, schedule: Q01DX005 (ip), vehicle: Klucel (hydroxypropylcellulose) (HPC)
[4] = dose: 100.0 mg/kg/injection, schedule: Q01DX005 (ip), vehicle: Klucel (hydroxypropylcellulose) (HPC)
[5] = dose: 200.0 mg/kg/injection, schedule: Q01DX005 (ip), vehicle: Klucel (hydroxypropylcellulose) (HPC)
[6] = dose: 60.0 mg/kg/injection, schedule: Q01DX005 (ip), vehicle: saline with Tween-80
[7] = dose: 120.0 mg/kg/injection, schedule: Q01DX005 (ip), vehicle: saline with Tween-80
[8] = dose: 240.0 mg/kg/injection, schedule: Q01DX005 (ip), vehicle: saline with Tween-80
[9] = dose: 50.0 mg/kg/injection, schedule: Q01DX005 (ip), vehicle: saline with Tween-80
[10] = dose: 100.0 mg/kg/injection, schedule: Q01DX005 (ip), vehicle: saline with Tween-80
[11] = dose: 200.0 mg/kg/injection, schedule: Q01DX005 (ip), vehicle: saline with Tween-80

Measured: T/C

C=C1C(=O)O[C@H]2[C@H]1[C@H](OC(=O)/C(C)=C\C)CC(=C)[C@@H]1[C@H](O)[C@H]3O[C@@]3(C)[C@@]12O
inactive: dose: 6.25 mg/kg/injection, schedule: Q01DX009 (ip), vehicle: saline 102 % of control | dose: 12.5 mg/kg/injection, schedule: Q01DX009 (ip), vehicle: saline 106 % of control and 111 % of control | dose: 25.0 mg/kg/injection, schedule: Q01DX009 (ip), vehicle: saline 112 % of control and 113 % of control | [1] 121 % of control | [2] 109 % of control

COC(=O)C1=C(C(=O)OC)C2C=CC1C1C(Br)C(Br)C21 (stereo not drawn)
inactive: dose: 50.0 mg/kg/injection, schedule: Q01DX009 (ip), vehicle: Klucel (hydroxypropylcellulose) (HPC) 100 % of control | dose: 100.0 mg/kg/injection, schedule: Q01DX009 (ip), vehicle: Klucel (hydroxypropylcellulose) (HPC) 102 % of control | dose: 200.0 mg/kg/injection, schedule: Q01DX009 (ip), vehicle: Klucel (hydroxypropylcellulose) (HPC) 100 % of control

ONc1cnc2ccccc2n1
inactive: [3] 103 % of control | [4] 100 % of control | [5] 100 % of control

CC(NC(=O)C(N)CSSCC(N)C(=O)NC(C)C(=O)O)C(=O)O (stereo not drawn) (I: H-Cys-Ala-OH / II: H-Cys-Ala-OH; disulfide I:1-II:1; configuration not given here)
inactive: [3] 100 % of control | [4] 104 % of control | [5] 110 % of control

CCCCCC(=O)OC(C)Cl (stereo not drawn)
inactive: [1] 99 % of control | [2] 97 % of control | dose: 200.0 mg/kg/injection, schedule: Q01DX009 (ip), vehicle: saline 106 % of control

NN(Cc1ccccc1[N+](=O)[O-])c1ccccc1
inactive: dose: 50.0 mg/kg/injection, schedule: Q01DX009 (ip), vehicle: saline with Tween-80 100 % of control | dose: 100.0 mg/kg/injection, schedule: Q01DX009 (ip), vehicle: saline with Tween-80 86 % of control | dose: 200.0 mg/kg/injection, schedule: Q01DX009 (ip), vehicle: saline with Tween-80 101 % of control

OC1C(O)C(O)C(O)C(O)C1O.[Cu+2].[Cu] (stereo not drawn)
inactive: dose: 3.12 mg/kg/injection, schedule: Q01DX005 (ip), vehicle: Klucel (hydroxypropylcellulose) (HPC) 93 % of control | dose: 6.25 mg/kg/injection, schedule: Q01DX005 (ip), vehicle: Klucel (hydroxypropylcellulose) (HPC) 93 % of control | dose: 12.5 mg/kg/injection, schedule: Q01DX005 (ip), vehicle: Klucel (hydroxypropylcellulose) (HPC) 94 % of control | dose: 25.0 mg/kg/injection, schedule: Q01DX005 (ip), vehicle: Klucel (hydroxypropylcellulose) (HPC) 100 % of control

O=C1OC(c2ccc(Cl)c(Cl)c2)C(=O)C1=O (stereo not drawn)
inactive: dose: 3.75 mg/kg/injection, schedule: Q01DX005 (ip), vehicle: saline with Tween-80 86 % of control | dose: 7.5 mg/kg/injection, schedule: Q01DX005 (ip), vehicle: saline with Tween-80 91 % of control | dose: 15.0 mg/kg/injection, schedule: Q01DX005 (ip), vehicle: Klucel + Tween-80 92 % of control | dose: 15.0 mg/kg/injection, schedule: Q01DX005 (ip), vehicle: saline with Tween-80 102 % of control

N#CC(C#N)=CNc1ccccc1C(=O)NCCCn1ccnc1
inactive: [6] 93 % of control | [7] 93 % of control | [8] 95 % of control

CCOc1ccccc1N=Nc1c(-c2ccccc2)nn(C(=S)S)c1-c1ccccc1
inactive: [9] 107 % of control | [10] 109 % of control | [11] 110 % of control

O=C1c2cccc3cccc(c23)C(=O)N1CCO
inactive: [9] 104 % of control | [10] 96 % of control | [11] 100 % of control

O=C1C(CCl)(CCl)CCC12CN=C(Cl)C2 (stereo not drawn)
inactive: [9] 100 % of control | [10] 100 % of control | [11] 106 % of control

Nc1ncnc2nc(-c3ccccc3)[nH]c12
inactive: [6] 102 % of control | [7] 100 % of control | [8] 105 % of control
